Measured values taken from US20230103554A1, “TNFa SIGNALING [sequence] TUMOR-PROMOTING INFLAMMATION THAT CAN BE TARGETED TO THERAPY” (Baylor College of Medicine, priority 2020, published 2023).

How the values were obtained:
[1] = tested on: SK-N-AS-luc/monocyte xenografts; assay: SK-N-AS-luc/monocyte subcutaneous xenograft in NSG mice; type: in vivo, mouse
Procedure: Luciferase-labeled NB and freshly isolated human monocytes were embedded in Matrigel and injected into the subcutaneous right flank of 8-week female NSG mice. […] (FIG. 9A) Tumor growth was tracked indirectly through luminescence imaging using IVIS Imaging system. (FIG. 9B) Average tumor luminescence of each group over time. After 3 weeks, mice were sacrificed and the tumor size was analyzed directly by weight. The bottom line is NB+Mono+FcTNFR and the top line is NB+Mono+IgG. (FIG. 9C) Representative image of 5 tumors from each group. (FIG. 9D) Tumor weight by group after Log10 transformation of weight (in mg). * p<0.05, ** p<0.01;
(FIG. 27A) SK-N-AS-luc and freshly isolated human monocytes were embedded in matrigel and injected into the subcutaneous right flank of eight-week female NSG mice. […] Representative luminescence images (Ctrl n=7, Etan n=13) measured in radiance (photons/second/cm2/steradian). (FIG. 27B) Graphical representation of total luminescence per tumor from (A) over time. (FIG. 27C) Mean tumor total luminescence over time, two-way ANOVA with Bonferroni multiple comparisons test (Ctrl n=7, Etan n=13); NB/Mon+Ctrl line is on top. (FIG. 27D) Representative tumors for each group following sacrifice at day 21. * p<0.05; […]

murine CD31 = assay: Murine CD31 immunofluorescence of xenograft tumors (angiogenesis); type: in vivo, mouse; conditions: CHLA-255-luc/monocyte tumors
Text: (FIG. 17A) Tumors recovered from mice in FIG. 16 were snap frozen in OTC media, thin sectioned, and stained for murine CD31 expression (red) and DAPI counterstain (blue). Results shown are representative images from five fields of view (FOVs) per tumor, with five tumors per group. Scale bar 50 μm. (FIG. 17B) Total number of CD31+ regions per FOV with box and whisker plot showing quartiles±range (Ctrl n=15, Etan n=25). (FIG. 17C) Size of each CD31+ area quantified per FOV; shown is median CD31+ area per FOV with box and whisker plot showing quartiles±range (Ctrl n=15, Etan n=25) (FIG. 17D) Longest distance across each CD31+ area (Max Feret distance) per FOV; shown is median distance per FOV with box and whisker plot showing quartiles±range (Ctrl n=15, Etan n=25). (FIG. 17E) Eukaryotic mRNA-seq was performed on tumor samples, and mouse transcripts were excluded from analysis by XenoFilterR program. Differentially regulated genes were identified using two-fold expression difference and adjusted P value<0.05 as cutoffs.
Tumors from in vivo experiments were snap-frozen in OTC Media (Tissue-Tek, VWR) and cryo-sectioned into 5 μm thin sections (Texas Children's Hospital Histology Core, Houston, Tex.). Samples were fixed and permeabilized in ice-cold acetone for 10 minutes at −20 C and blocked in TBS containing 5% normal goat serum (CST) and 1% BSA (Sigma) for 2 hours at RT. Rat anti-mouse CD31 primary antibody (Invitrogen, clone 390) was diluted 1:10 in staining buffer (TBS, 1% NGS, 1% BSA) overnight at 4 C. […] Slides were counterstained with 1 μg/mL DAPI (BD Biosciences) for five minutes and mounted with fluorescence mounting media (Fluoromount G, Invitrogen). […] Images were processed and analyzed using FIJI/ImageJ software (NIH). To quantify CD31+ staining, images were thresholded (default, 1800 MIN, Infinity MAX), converted to binary, and analyzed using the FIJI/ImageJ “Analyze Particle” function excluding regions smaller than 25 μm2. […]

[2] = tested on: cytokines/chemokines in CHLA-255-monocyte co-cultures; assay: Multiplex Luminex cytokine array on co-culture supernatants; type: cell-based, human; conditions: CHLA-255 + monocytes, 10 μg/mL etanercept, 24 hours
SK-N-AS and monocytes = assay: Tumorsphere cluster formation in low attachment plates; type: cell-based, human; conditions: 10 μg/mL etanercept, 24 hours, ultra low attachment plates
monocyte IL-6 production = assay: NB-monocyte co-culture, IL-6 ELISA of supernatant; type: cell-based, human; conditions: 24 hours
Procedure: Monocytes were directly cultured with wild-type or TNF, TNFR1, TNFR2 KO NB cell lines in ULA plates for 24 hours. Activation of NF-kB in monocytes and NB was measured by flow cytometry and cytokine production measured by ELISA from co-culture supernatant. To evaluate the contact-dependence of monocyte activation by NB, monocytes were cultured in ULA plates with seven-day NB conditioned medium mixed 1:1 with complete monocyte medium for 24 hours and analyzed for IL-6 production. To assess the growth advantage of NB cultured with monocytes, NB-luc cell lines and monocytes were seeded in tissue culture-treated white 96-well plates (1:1 ratio) and cultured for four days. Luminescence was measured using a TECAN Spark plate reader (TECAN). To evaluate changes in proliferation, NB was pulsed for 10 minutes in CellTrace Violet (2 μM, Invitrogen) and seeded at 100,000 cells per well in a 12-well tissue culture-treated plate. Monocytes were added directly to the NB monolayer at a density of 100,000 per well and incubated for four days. CellTrace Violet expression was analyzed by flow cytometry.
Cytokines released by monocytes were detected within co-culture supernatants using the Human TNF-alpha Quantikine ELISA Kit (TNFα, R&D Systems) and the Human IL-6 Quantikine ELISA Kit (IL-6, R&D Systems) according to manufacturer's guidelines. ELISA plates were read using a TECAN Spark plate reader (TECAN). Global cytokine regulation was evaluated using a custom Luminex panel containing the following cytokines: CX3CL1, CXCL10, EGF, FGF-2, Flt3L, G-CSF, GM-CSF, IL-1α, IL-1β, IL-1Ra, IL-4, IL-6, IL-8, IL-10, IL-12 (p40), IL-12 (p′70), M-CSF, MCP-1, MCP-3, MDC, MIP-1α, MIP-1β, TGFα, TNFα, TNFβ, and VEGF-A (Human Cytokine Panel A, Millipore-Sigma).

For etanercept, the “reduction of tumor growth (luminescence)” value ([1]; 5 mg/kg (100 μg) i.p. bi-weekly, vs IgG control) was 30%, the growth of tumors ([1]; SK-N-AS + monocytes in Matrigel, 100 μg bi-weekly, vs IgG control (FIG. 9)) was “significantly decreased the growth of tumors” and the “vessel formation by CD31 immunofluorescence” value (murine CD31; vs IgG control) was “failed to form distinct vessels”. For the same substance, the “average area of CD31+ regions per FOV” value (murine CD31; vs control) was “significantly smaller”, the “vessel length (maximum linear distance across CD31+ regions)” value (murine CD31; vs control) was “significantly shorter” and the “induction/upregulation of G-CSF, GM-CSF, IL-1α, IL-1β, IL-6, IL-10, IL-12-p40, IP-10, MIP-1β” value [2] was “completely reversed the induction/upregulation of all nine cytokines/chemokines”. For the same substance, the “association of NB/monocytes into tumorsphere clusters” value (SK-N-AS and monocytes) was “blocking the ability of NB/monocytes to associate into tumorsphere clusters”, the IL-6 production (monocyte IL-6 production; CHLA-255 + monocytes, 10 μg/mL etanercept, vs IgG control (FIG. 15B)) was “almost entirely blocked” and the “IL-6 level in co-culture supernatant” value (monocyte IL-6 production; SK-N-AS + monocytes, vs IgG control) was “decrease”.
